Reference: patent US20110160223A1, “NMDA Receptor Antagonists for the Treatment of Neuropsychiatric Disorders” (priority 2008, published 2011)
Where two headings read alike, the source gives them in different places. Blank lines part the entries; values can stand above or below the compound they belong to.

What was measured:
[1] = target: NMDA receptor (NR1 + NR2 subunits) (Rattus norvegicus, UniProt P35439+Q00960); assay: Two electrode voltage clamp recording from Xenopus laevis oocytes (pH dependence of NMDA antagonism); type: cell-based
NMDA receptor (NR1 + NR2 subunits), sequence (Q00960 27-1482, other chains not shown): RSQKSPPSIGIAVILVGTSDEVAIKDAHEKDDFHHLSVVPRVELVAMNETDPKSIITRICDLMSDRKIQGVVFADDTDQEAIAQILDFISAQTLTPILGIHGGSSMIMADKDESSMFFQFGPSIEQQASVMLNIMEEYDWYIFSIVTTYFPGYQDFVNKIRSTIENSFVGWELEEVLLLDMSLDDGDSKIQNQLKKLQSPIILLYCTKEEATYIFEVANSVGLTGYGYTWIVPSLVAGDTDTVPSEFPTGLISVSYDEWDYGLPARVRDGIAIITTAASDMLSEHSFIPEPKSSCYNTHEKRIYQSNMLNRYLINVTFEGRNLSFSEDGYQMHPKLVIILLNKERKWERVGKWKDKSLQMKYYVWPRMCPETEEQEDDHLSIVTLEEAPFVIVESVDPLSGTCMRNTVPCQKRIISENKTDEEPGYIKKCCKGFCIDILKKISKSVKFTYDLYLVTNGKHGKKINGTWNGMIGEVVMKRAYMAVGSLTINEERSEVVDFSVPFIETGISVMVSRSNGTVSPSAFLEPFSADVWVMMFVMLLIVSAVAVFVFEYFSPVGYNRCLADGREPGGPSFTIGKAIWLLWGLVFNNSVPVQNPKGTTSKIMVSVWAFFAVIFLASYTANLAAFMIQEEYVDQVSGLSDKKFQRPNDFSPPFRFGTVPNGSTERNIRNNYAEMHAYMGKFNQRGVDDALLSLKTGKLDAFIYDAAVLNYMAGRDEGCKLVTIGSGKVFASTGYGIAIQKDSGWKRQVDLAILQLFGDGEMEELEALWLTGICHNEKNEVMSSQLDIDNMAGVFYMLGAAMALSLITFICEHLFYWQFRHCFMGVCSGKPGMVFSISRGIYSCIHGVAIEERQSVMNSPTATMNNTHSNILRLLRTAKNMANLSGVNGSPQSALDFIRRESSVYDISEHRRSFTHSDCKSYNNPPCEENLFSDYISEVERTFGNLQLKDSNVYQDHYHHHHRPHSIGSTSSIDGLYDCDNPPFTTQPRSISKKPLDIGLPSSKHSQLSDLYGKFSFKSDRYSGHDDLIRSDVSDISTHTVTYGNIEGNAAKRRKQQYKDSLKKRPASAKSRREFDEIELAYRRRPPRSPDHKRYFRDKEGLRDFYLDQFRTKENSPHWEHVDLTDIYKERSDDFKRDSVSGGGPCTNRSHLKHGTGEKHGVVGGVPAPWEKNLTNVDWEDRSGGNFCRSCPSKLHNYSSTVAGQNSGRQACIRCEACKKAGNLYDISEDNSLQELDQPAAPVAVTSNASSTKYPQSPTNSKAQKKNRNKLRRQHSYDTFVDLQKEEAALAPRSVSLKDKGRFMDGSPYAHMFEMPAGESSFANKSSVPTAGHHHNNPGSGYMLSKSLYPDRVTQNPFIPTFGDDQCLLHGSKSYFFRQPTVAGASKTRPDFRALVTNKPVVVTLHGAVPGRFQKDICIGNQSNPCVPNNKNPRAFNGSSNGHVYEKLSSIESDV
Experimental: cRNA was synthesized from linearized template cDNA for rat glutamate receptor subunits according to manufacturer specifications (Ambion). Quality of synthesized cRNA was assessed by gel electrophoresis, and quantity was estimated by spectroscopy and gel electrophoresis. Stage V and VI oocytes were surgically removed from the ovaries of large, well-fed and healthy Xenopus laevis anesthetized with 3-amino-benzoic acid ethyl ester (3 gm/l) as previously described. Clusters of isolated oocytes were incubated with 292 U/ml Worthington (Freehold, N.J.) type IV collagenase or 1.3 mg/ml collagenase (Life Technologies, Gaithersburg, Md.; 17018-029) for 2 hr in Ca^2+-free solution comprised of (in mM) 115 NaCl, 2.5 KCl, and 10 HEPES, pH 7.5, with slow agitation to remove the follicular cell layer. Oocytes were then washed extensively in the same solution supplemented with 1.8 mM CaCl2 and maintained in Barth's solution comprised of (in mM): 88 NaCl, 1 KCl, 2.4 NaHCO3, 10 HEPES, 0.82 MgSO4, 0.33 Ca(NO3)2, and 0.91 CaCl2 and supplemented with 100 μg/ml gentamycin, 10 μg/ml streptomycin, and 10 μg/ml penicillin. Oocytes were manually defolliculated and injected within 24 hrs of isolation with 3-5 ng of NR1 subunit cRNA and 7-10 ng of NR2 cRNA subunit in a 50 nl volume, or 5-10 ng of AMPA or kainate receptor cRNAs in a 50 nl volume, and incubated in Barth's solution at 18° C. for 1-7 d. Glass injection pipettes had tip sizes ranging from 10-20 microns, and were backfilled with mineral oil.
Two electrode voltage-clamp recordings were made 2-7 days post-injection as previously described. Oocytes were placed in a dual-track plexiglass recording chamber with a single perfusion line that splits in a Y-configuration to perfuse two oocytes. Dual recordings were made at room temperature (23° C.) using two Warner OC725B two-electrode voltage clamp amplifiers, arranged as recommended by the manufacturer. Glass microelectrodes (1-10 Megaohms) were filled with 300 mM KCl (voltage electrode) or 3 M KCl (current electrode). The bath clamps communicated across silver chloride wires placed into each side of the recording chamber, both of which were assumed to be at a reference potential of 0 mV. Oocytes were perfused with a solution comprised of (in mM) 90 NaCl, 1 KCl, 10 HEPES, and 0.5 BaCl2; pH was adjusted by addition of 1-3 M NaOH of HCl. Oocytes were recorded under voltage clamp at −40 mV. Final concentrations for control application of glutamate (50 μM) plus glycine (30 μM) were achieved by adding appropriate volumes from 100 and 30 mM stock solutions, respectively. In addition, 10 μM final EDTA was obtained by adding a 1:1000 dilution of 10 mM EDTA, in order to chelate contaminant divalent ions such as Zn^2+. Concentration-response curves for experimental compounds were obtained by applying in successive fashion maximal glutamate/glycine, followed by glutamate/glycine plus variable concentrations of experimental compounds. Dose response curves consisting of 4 to 8 concentrations were obtained in this manner. The baseline leak current at −40 mV was measured before and after recording, and the full recording linearly corrected for any change in leak current. Oocytes with glutamate-evoked responses smaller than 50 nA were not included in the analysis. The level of inhibition by applied experimental compounds was expressed as a percent of the initial glutamate response, and averaged together across oocytes from a single frog. Each experiment consisted of recordings from 3 to 10 oocytes obtained from a single frog. Results from 3-6 experiments were pooled, and the average percent responses at antagonist concentrations were fitted by the equation,
Percent Response=(100−minimum)/(1+([conc]/IC50)^nH)+minimum […]

[2] = Plasma half-life (i.v./i.p. pharmacokinetics, Table 23); type: in vivo, Rats; settings: rat; for AUC(0-t): read-out: AUC (0-last h) i.v. XMPK; for Cmax at 30 min: 30 m
Experimental: Animals were fasted overnight prior to dose administration and food returned to the animals two hours after dosing. Following IV dosing, blood samples (ca 200 μL) were collected into separate tubes containing anticoagulant (K-EDTA) via the orbital plexus at various times post administration. Plasma samples were prepared immediately after collection by centrifugation for ten minutes using a tabletop centrifuge, and stored at −80° C. Brain tissue was weighed, homogenized on ice in 50 mM phosphate buffer (2 ml per brain) and the homogenate stored at −80° C. Plasma and brain homogenate samples were extracted by the addition of 5 volumes of cold acetonitrile, mixed well by vortexing and centrifuged at 4000 rpm for 15 minutes. The supernatant fractions were analyzed by LC-MS/MS operating in multiple reaction monitoring mode (MRM). The amount of parent compound in each sample was calculated by comparing the response of the analyte in the sample to that of a standard curve.

[3] = Oral absorption (p.o. pharmacokinetics, Table 25); type: in vivo, Rats; settings: rat, plasma; for bioavailability: read-out: % Absorbed (% F); for AUC(0-t): read-out: AUC (0-last h) p.o.
[4] = pH 6.9, Table 21, read-out: IC50 at pH 6.9
[5] = pH 7.6, Table 21, read-out: IC50 at pH 7.6
[6] = iv, 1 mg/kg, 1 MPK, 0-4 hr i.v.
[7] = iv, 1 mg/kg, 1 MPK, 0-6 hr i.v.

IC50 [1, 4]: 30 nM
IC50 [1, 5]: 55 nM
Structure (SMILES): CS(=O)(=O)Nc1ccc(CCC(=O)NCCNc2ccc(Cl)c(Cl)c2)cc1

IC50 [1, 4]: 2 nM
IC50 [1, 5]: 21 nM
Structure (SMILES): CS(=O)(=O)Nc1ccc(CCCNCCNc2ccc(Cl)c(Cl)c2)cc1

Structure (SMILES): CS(=O)(=O)Nc1ccc(CCCN2CCN(c3ccc(Cl)c(Cl)c3)C2=O)cc1
IC50 [1, 4]: 160 nM
IC50 [1, 5]: 809 nM

IC50 [1, 4]: 80 nM
IC50 [1, 5]: 150 nM
Structure (SMILES): O=C(COc1ccc2[nH]c(=O)oc2c1)NCCNc1ccc(Cl)c(Cl)c1

IC50 [1, 4]: 10 nM
IC50 [1, 5]: 70 nM
Structure (SMILES): CS(=O)(=O)Nc1ccc(CCC(=O)NC/C=C/c2ccc(Cl)c(Cl)c2)cc1

IC50 [1, 4]: 280 nM
IC50 [1, 5]: 515 nM
Structure (SMILES): O=C(COc1ccc(O)cc1)NCCNc1ccc(Cl)c(Cl)c1

IC50 [1, 4]: 210 nM
IC50 [1, 5]: 339 nM
Structure (SMILES): O=C(CCc1ccc(O)cc1)NCCNc1ccc(Cl)c(Cl)c1

IC50 ([1]; pH 6.9, Table 22, read-out: IC50 pH 6.9): > 10000 nM
IC50 ([1]; pH 7.6, Table 22, read-out: IC50 pH 7.6): > 10000 nM
Structure (SMILES): O[C@H](COc1ccc2[nH]ccc2c1)CN1CCN(c2ccc(Cl)cc2)CC1

Cmax ([2]; iv, 3 mg/kg, 3MPK i.v.): 1070 ng/mL
AUC(0-t) ([2]; iv, 3 mg/kg, 3MPK, 0-4 hr i.v.): 2350 ng·h/mL
Structure (SMILES): CS(=O)(=O)Nc1ccc(OC[C@@H](O)CN2CCN(c3ccc(Cl)c(Cl)c3)CC2)cc1

Structure (SMILES): NC(=O)Nc1ccc(OC[C@@H](O)CN2CCN(c3ccc(Cl)cc3)CC2)cc1 [drawing 755]
IC50 ([1]; pH 6.9, Table 20, read-out: IC50 at pH 6.9): 46 nM
IC50 ([1]; pH 7.6, Table 20, read-out: IC50 at pH 7.6): 452 nM

IC50 [1, 4]: 41 nM
IC50 [1, 5]: 45 nM
Structure (SMILES): O=C(COc1ccc2[nH]c(=O)oc2c1)N1CCN(c2ccc(Cl)c(Cl)c2)CC1 [drawing 768]

Structure (SMILES): NC(=O)Nc1ccc(OC[C@@H](O)CN2CCN(c3ccc(Cl)cc3)CC2)cc1 [drawing 786]
Cmax ([2]; iv, 1 mg/kg, 1 MPK i.v.): 252 ng/mL
AUC(0-t) [2, 6]: 1030 ng·h/mL

Cmax ([2]; iv, 1 mg/kg, 1 MPK i.v.): 241 ng/mL
AUC(0-t) [2, 7]: 452 ng·h/mL
Structure (SMILES): O=c1[nH]c2ccc(OC[C@@H](O)CN3CCN(c4ccc(F)c(F)c4)CC3)cc2[nH]1 [drawing 787]

Cmax at 30 min ([2]; ip, 60 mg/kg, 60 MPK): 13400 ng/mL
Cmax at 2 hr ([2]; ip, 60 mg/kg, 60 MPK, 2 hr): 13100 ng/mL
Structure (SMILES): CS(=O)(=O)Nc1ccc(OC[C@@H](O)CN2CCN(c3ccc(F)c(F)c3)CC2)cc1 [drawing 789]

Cmax ([2]; iv, 1 mg/kg, 1 MPK i.v.): 464 ng/mL
AUC(0-t) [2, 7]: 347 ng·h/mL
Structure (SMILES): Cc1ccc(N2CCN(C[C@H](O)COc3ccc4c(c3)CCC(=O)N4)CC2)cc1 [drawing 790]

Cmax ([2]; iv, 1 mg/kg, 1 MPK i.v.): 193 ng/mL
AUC(0-t) [2, 6]: 187 ng·h/mL
Structure (SMILES): Oc1ccc(OC[C@@H](O)CN2CCN(c3ccc(Cl)cc3)CC2)cc1 [drawing 791]

Structure (SMILES): O=c1[nH]c2ccc(OC[C@@H](O)CN3CCN(c4ccc(Cl)cc4)CC3)cc2o1 [drawing 792]
Cmax ([2]; iv, 1 mg/kg, 1 MPK i.v.): 288 ng/mL
AUC(0-t) [2, 6]: 217 ng·h/mL

Cmax ([2]; iv, 1 mg/kg, 1 MPK i.v.): 568 ng/mL
AUC(0-t) [2, 6]: 364 ng·h/mL
Structure (SMILES): Cc1ccc(N2CCN(C[C@H](O)COc3ccc4[nH]c(=O)oc4c3)CC2)cc1 [drawing 793]

Cmax ([2]; iv, 1 mg/kg, 1 MPK i.v.): 715 ng/mL
AUC(0-t) [2, 7]: 787 ng·h/mL
Structure (SMILES): NC(=O)Nc1ccc(OC[C@@H](O)CN2CCN(c3ccc(Cl)cc3)C2=O)cc1 [drawing 794]

Cmax at 30 min ([2]; iv, 3 mg/kg, 3 MPK i.v.): 377 ng/mL
Structure (SMILES): O=C1N(C[C@H](O)COc2ccc(O)cc2)CCN1c1ccc(Cl)cc1 [drawing 795]

Cmax ([2]; iv, 1 mg/kg, 1 MPK i.v.): 576 ng/mL
AUC(0-t) [2, 7]: 1100 ng·h/mL
Structure (SMILES): O=C(COc1ccc2[nH]c(=O)[nH]c2c1)N1CCN(c2ccc(Cl)c(Cl)c2)CC1 [drawing 796]

Cmax at 15 min ([2]; ip, 10 mg/kg, 10 MPK i.p., 15 m): 960 ng/mL
Structure (SMILES): O=C(COc1ccc2[nH]c(=O)oc2c1)N1CCN(c2ccc(Cl)c(Cl)c2)CC1 [drawing 797]

Cmax at 30 min ([2]; iv, 3 mg/kg, 3 MPK i.v.): 398 ng/mL
Structure (SMILES): O=c1[nH]c2ccc(OC[C@@H](O)CSc3nc4cc(Cl)c(Cl)cc4[nH]3)cc2o1 [drawing 798]

Cmax at 30 min ([2]; iv, 3 mg/kg, 3 MPK i.v.): 413 ng/mL
Structure (SMILES): Oc1ccc(OC[C@@H](O)CSc2nc3cc(Cl)c(Cl)cc3[nH]2)cc1 [drawing 799]

Structure (SMILES): NC(=O)Nc1ccc(OC[C@@H](O)CN2CCN(c3ccc(Cl)cc3)CC2)cc1 [drawing 810]
Cmax ([3]; 10 mg/kg, 10 MPK, 0-8 hr p.o.): 1560 ng/mL
Tmax ([3]; 10 mg/kg, 10 MPK, 0-8 hr p.o.): 2.67 h
bioavailability ([3]; 10 mg/kg, 10 MPK, 0-8 hr p.o.): 146%
AUC(0-t) ([3]; 10 mg/kg, 10 MPK, 0-8 hr p.o.): 8450 ng·h/mL

Cmax ([3]; 5 mg/kg, 5 MPK, 0-6 hr p.o.): 558 ng/mL
Tmax ([3]; 5 mg/kg, 5 MPK, 0-6 hr p.o.): 0.5 h
bioavailability ([3]; 5 mg/kg, 5 MPK, 0-6 hr p.o.): 82.2%
AUC(0-t) ([3]; 5 mg/kg, 5 MPK, 0-6 hr p.o.): 1860 ng·h/mL
Structure (SMILES): O=c1[nH]c2ccc(OC[C@@H](O)CN3CCN(c4ccc(F)c(F)c4)CC3)cc2[nH]1 [drawing 811]

Cmax ([3]; 5 mg/kg, 5 MPK, 0-6 hr p.o.): 407 ng/mL
Tmax ([3]; 5 mg/kg, 5 MPK, 0-6 hr p.o.): 0.33 h
bioavailability ([3]; 5 mg/kg, 5 MPK, 0-6 hr p.o.): 31.6%
AUC(0-t) ([3]; 5 mg/kg, 5 MPK, 0-6 hr p.o.): 549 ng·h/mL
Structure (SMILES): Cc1ccc(N2CCN(C[C@H](O)COc3ccc4c(c3)CCC(=O)N4)CC2)cc1 [drawing 812]

Cmax ([3]; 10 mg/kg, 10 MPK, 0-8 hr p.o.): 57.8 ng/mL
Tmax ([3]; 10 mg/kg, 10 MPK, 0-8 hr p.o.): 6.7 h
bioavailability ([3]; 10 mg/kg, 10 MPK, 0-8 hr p.o.): 7.9%
AUC(0-t) ([3]; 10 mg/kg, 10 MPK, 0-8 hr p.o.): 284 ng·h/mL
Structure (SMILES): Cc1ccc(N2CCN(C[C@H](O)COc3ccc4[nH]c(=O)oc4c3)CC2)cc1 [drawing 813]

Structure (SMILES): O=c1[nH]c2ccc(OC[C@@H](O)CN3CCN(c4ccc(Cl)cc4)CC3)cc2o1 [drawing 814]
Cmax ([3]; 10 mg/kg, 10 MPK, 0-8 hr p.o.): 30.6 ng/mL
Tmax ([3]; 10 mg/kg, 10 MPK, 0-8 hr p.o.): 8 h
bioavailability ([3]; 10 mg/kg, 10 MPK, 0-8 hr p.o.): 6.2%
AUC(0-t) ([3]; 10 mg/kg, 10 MPK, 0-8 hr p.o.): 132 ng·h/mL

Cmax ([3]; 10 mg/kg, 10 MPK, 0-8 hr p.o.): 10.2 ng/mL
Tmax ([3]; 10 mg/kg, 10 MPK, 0-8 hr p.o.): 5.3 h
bioavailability ([3]; 10 mg/kg, 10 MPK, 0-8 hr p.o.): 3.3%
AUC(0-t) ([3]; 10 mg/kg, 10 MPK, 0-8 hr p.o.): 56.4 ng·h/mL
Structure (SMILES): Oc1ccc(OC[C@@H](O)CN2CCN(c3ccc(Cl)cc3)CC2)cc1 [drawing 815]
